From publication PMC10307805, “DprE2 is a molecular target of the anti-tubercular nitroimidazole compounds pretomanid and delamanid” (Nature Communications, 2023)

What was measured:
Assay type in all cases: biochemical
[1] = biological target: T1, DprE2 (decaprenylphosphoryl-2-keto-β-D-erythro-pentose reductase) (Mycobacterium tuberculosis, UniProt P9WGS9)
[2] = biological target: T2, Ddn (deazaflavin F420-dependent nitroreductase) (Mycobacterium tuberculosis, UniProt P9WP15)
T2 construct: recombinant Ddn, SUMO tag removed

[3] = biological target: DprE1 (decaprenylphosphoryl-β-D-ribose oxidase) (Mycobacterium tuberculosis, UniProt P9WJF1); experiment: resazurin reduction fluorescence assay with GGPR (also […] on Mt-DprE1-DprE2 complex)
[4] = biological target: T1, DprE2 (decaprenylphosphoryl-2-keto-β-D-erythro-pentose reductase); experiment: […]; also IC50 […] and radiolabeled DPR epimerization TLC

T1 sequence (P9WGS9 whole entry, looked up): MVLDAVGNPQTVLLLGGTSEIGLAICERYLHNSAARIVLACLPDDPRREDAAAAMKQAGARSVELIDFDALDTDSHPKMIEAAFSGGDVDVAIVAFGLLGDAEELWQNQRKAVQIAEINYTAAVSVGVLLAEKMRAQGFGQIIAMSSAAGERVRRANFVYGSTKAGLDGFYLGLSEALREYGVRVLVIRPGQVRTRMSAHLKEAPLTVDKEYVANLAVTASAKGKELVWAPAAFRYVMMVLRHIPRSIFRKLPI
Chain of DprE1 (decaprenylphosphoryl-β-D-ribose oxidase) (P9WJF1 whole entry): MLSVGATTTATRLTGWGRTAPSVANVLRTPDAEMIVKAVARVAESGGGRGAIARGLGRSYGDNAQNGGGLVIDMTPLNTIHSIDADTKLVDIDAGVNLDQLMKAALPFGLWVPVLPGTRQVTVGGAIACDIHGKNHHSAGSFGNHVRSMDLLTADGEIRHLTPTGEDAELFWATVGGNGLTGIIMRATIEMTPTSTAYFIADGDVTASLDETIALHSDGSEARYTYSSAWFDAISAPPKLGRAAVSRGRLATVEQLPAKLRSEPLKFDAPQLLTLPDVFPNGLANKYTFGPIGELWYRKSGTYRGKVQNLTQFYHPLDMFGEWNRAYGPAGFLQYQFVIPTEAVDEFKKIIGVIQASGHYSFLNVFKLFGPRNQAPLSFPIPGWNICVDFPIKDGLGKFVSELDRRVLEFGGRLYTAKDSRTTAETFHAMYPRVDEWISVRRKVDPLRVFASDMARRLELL
T2 sequence (P9WP15 whole entry): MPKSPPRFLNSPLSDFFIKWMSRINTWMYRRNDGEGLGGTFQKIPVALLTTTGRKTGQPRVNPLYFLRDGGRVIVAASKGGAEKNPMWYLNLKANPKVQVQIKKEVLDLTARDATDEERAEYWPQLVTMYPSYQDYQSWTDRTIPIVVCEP

## NC(=O)C1=CN([C@@H]2O[C@H](COP(=O)(O)OP(=O)(O)OC[C@H]3O[C@@H](n4cnc5c(N)ncnc54)[C@H](OP(=O)(O)O)[C@@H]3O)[C@@H](O)[C@H]2O)C=CC1 [NADPH]
[1]
  NADPH oxidation fluorescence assay with NADPH titration: DprE2 activity was monitored through a change in fluorescence due to the oxidation of the DprE2 cofactor, NADPH

## O=[N+]([O-])c1cn2c(n1)OC[C@@H](OCc1ccc(OC(F)(F)F)cc1)C2 [pretomanid]
[2]
  pro-drug activation by purified Ddn with Fgd1/F420, read out by DprE2 inhibition: upon activation of the pretomanid by Ddn, there was a dose-dependent reduction in Mt-DprE2 activity

## BTZ
[3]
  IC50: 11.8 ± 0.7 µM

## Ddn-activated pretomanid
[4]
  Ki: 1.5 ± 0.4 µM
